From patent US6653529B2, “Use of the maize X112 mutant ahas 2 gene and imidazolinone herbicides for selection of transgenic monocots, maize, rice and wheat plants resistant to the imidazolinone herbicides” (BASF Aktiengesellschaft, priority 2000, dated 2003)

Key:
[1] = test system: immature embryos of transgenic homozygous T2 plants (26-4); assay: In vitro callus induction and growth from immature embryos on imazethapyr; format: cell-based, rice
Description: (§1) Immature embryos (12-14 days after fertilization) were dissected from transgenic homozygous T2 plants, identified as 26-4 in FIG. 1, or seed-grown Nortai plants and placed in N6 basal medium (Chiu et al., Sci. Sin 18:659-68, 1975) supplemented with 2 mg/l 2,4-D, 3% sucrose, 0.6% agarose (3SN6d2) amended with 0, 0.01, 0.033, 0.1, 0.3, 1.0, 3.3, 10, 25, or 50 μM imazethapyr (AC263,499). Five embryos were placed on one 10×60 mm Petri dish with two to three plates for each concentration as replications. Three weeks later, in vitro cellular response was monitored by measuring the fresh weight of callus derived from individual embryos.

[2] = test system: immature embryos of Nortai plants (control); assay: as above; format: cell-based, rice
Description: as §1

untransformed rice seeds = assay: Seed germination test on imazethapyr; format: in vivo
Description: Three tests were performed to evaluate herbicide resistance of T2 progeny of transgenic rice. T2 progeny were first evaluated by a seed germination test followed by the greenhouse spray test and PCR analysis. As a prelude to testing the transgenic plants, an experiment was conducted to germinate untransformed rice seeds at imazethapyr concentrations ranging from 0.1 to 10 μM. […] The greenhouse spray test and PCR analysis were used to further confirm the results of the seed germination test with consistent identification of lines as resistant homozygous, susceptible homozygous or segregating hemizygous.
T2 seeds harvested from individual T1 plants were sterilized in 50% Clorox® bleach (2.3% sodium hyperchlorite) for 30 min followed by a thorough rinse with autoclaved water and pre-germinated in water for 2-3 days. Thirty to 35 pre-germinated seeds were transferred to the surface of folded paper towels placed perpendicular to the bottom of a Magenta box (Sigma, St. Louis, Mo.) to which 20 ml of H2O containing 5 μM imazethapyr (AC263,499, tech grade) was added. The seedlings were grown under 12 hr light at 26° C. for about a month. Seedlings that survived the imazethapyr treatment were scored as resistant and those that died as susceptible. 5.0 μM imazethapyr, equivalent to 5 times the threshold, was used for subsequent seed germination tests of the T2 generation. T2 seeds harvested from 16 T1 lines derived from T0 plant No. 26 and those from 15 T1 lines derived from T0 plant No. 29 were screened in the seed germination tests.

[3] = test system: untransformed Nortai (Nt) rice plants; assay: Greenhouse spray test of rice with PURSUIT imazethapyr (pre- and post-emergence); format: in vivo; conditions: for No. panicles/plant Mean / No. tillers/plant Mean / Plant height Mean / Yield % 0× / Yield Mean: Nt
[4] = test system: transgenic corn hybrids BAa-4 and MAa-7; assay: Greenhouse spray test of corn, statements of the text on both transgenic lines; format: in vivo; conditions: 4× (160 g/ha)
From the text: Grow one corn plant per pot (5×5 inch) in a 3×5 flat till three- to four-leaf stage (about 9 to 13 days depending on the weather). On the day of spraying, water the plants well and let excess water drip out. Spray plants on a belt-sprayer with the imidazolinone herbicides at desired rates. […] When temperature was too high, base water plants to prevent wilting. Closely observe the plants for the next two to three weeks. Symptoms of herbicide injury will be visible three days after spraying and susceptible plants will die within two to three weeks depending on temperature.
The plants were rated on a scale of 0-5 with 0 for dead plants and 5 for healthy plants with no or minimum injury.
Two transgenic hybrids BAa-4 and MAa-7 lines (see FIG. 5 for their pedigree), a non-transformed control line B×A (B73×A188), 8962IT (heterozygous XI12 imi-tolerant corn line), 8962 (wild type control) and 3395IR (homozygous XA17 imi-resistant corn line) (8962IT and 8962 were from ICI, now Garst Seed Company, Slater, Iowa 50244, and 3395IR was from Pioneer Hi-Bred International Inc, Iowa 50306-3453). Plants were sprayed with 4, 8, 16 or 20×PURSUIT® imazethapyr, ARSENAL® imazapyr, CADRE® imazameth or RAPTOR® imazamox. Plants were scored 0 to 5 (with 0 being dead plants, 5 being healthy plants with no injury) individually 16 days after herbicide treatments. […]

[5] = test system: transgenic wheat plants (0407-1 and progeny); assay: Greenhouse spray test of wheat with RAPTOR imazamox; format: in vivo
From the text: Sow seed to 3×5-cell flats at about 10 seed per cell. Grow the plants for about two weeks. On the day of spraying, water plants well and let excess water drip out. Spray plants on a belt-sprayer with the imidazolinone herbicides at desired rates. […] Resume regular water schedule three days after spraying. Closely observe the plants for the next two to four weeks. Symptoms of herbicide injury will be visible two weeks after spraying and susceptible plants will die four to six weeks later. We usually measure plant height and score the plant morphology with a 0 to 10 rating with 0 for dead plants and 10 for healthy plants with no or minimum injury.
Wheat transformation efficiency, calculated as percent of immature embryos produced at least one imidazolinone-resistant transgenic plant ranged from 0.4 to 3.1% (Table 7). A fertile regenerant 0407-1 generated from early transformation experiment with Agrobacterium (LBA4404) containing pAC1558 was evaluated for resistance to RAPTOR® imazamox post emergence. Untransformed Ciccio and Closseo plants were very sensitive to RAPTOR® imazamox and dead at very low rate.
We also analyzed T2 progeny plants from one of the best lines of 0407-1-10. T2 seeds were planted at 10 seeds per pot and two pots per line were sprayed at 0, 10, 20, 30, 40 and 50 g/ha RAPTOR® imazamox. Most plants did show an increase in resistance over non-transformed control (FIG. 6B).

[6] = post-emergence, Rate 63 (g ai/ha)
[7] = post-emergence, Rate 125 (g ai/ha)
[8] = post-emergence, Rate 250 (g ai/ha)

## CCc1cnc(C2=NC(C)(C(C)C)C(=O)N2)c(C(=O)O)c1 (stereo not drawn) [PURSUIT ®, imazethapyr]
[1]; transgenic embryos
  concentration up to which callus induction and growth were normal: up to 1 μM
  concentration with no callus induction: 10 µM
[1]; transgenic embryos, 3.3 μM
  reduction in growth: about 50%
[1]; transgenic vs untransformed, immature embryos (also suspension cells / cell lines)
  increase in resistance to imazethapyr in vitro: 100 fold
[2]; 0.03 μM
  growth (reduced to) on imazethapyr: less than 50%
[2]; 3 weeks
  concentration at which callus induction was totally inhibited: 0.1 µM
Untransformed rice seeds; 5 μM imazethapyr, 1 month treatment
  fate of control seeds: all control seeds died
Untransformed rice seeds; germination at 0.1 to 10 μM
  concentration at which untransformed seeds were completely inhibited: 1 µM
[3]; Nortai, pre-emergence, 63 g/ha
  reduction in plant height: about 20%
  reduction in yield: ~40%
[3]; [6]
  No. panicles/plant Mean: 15.7
  No. tillers/plant Mean: 20.0
  Plant height Mean: 117.3 cm
  Yield % 0×: 99 % 0×
  Yield Mean: 227.0 g/5 plants
[3]; [7]
  No. panicles/plant Mean: 13.9
  No. tillers/plant Mean: 13.5
  Plant height Mean: 94.5 cm
  Yield % 0×: 52 % 0×
  Yield Mean: 120.0 g/5 plants
[3]; [8]
  No. panicles/plant Mean: 0
  No. tillers/plant Mean: 0
  Plant height Mean: 0 cm
  Yield % 0×: 0 % 0×
  Yield Mean: 0 g/5 plants
[3]; pre-emergence, 63 g/ha
  No. panicles/plant Mean: 5.7
  No. tillers/plant Mean: 6.5
  Plant height Mean: 98.0 cm
  Yield % 0×: 56 % 0×
  Yield Mean: 110.7 g/5 plants
[3]; pre-emergence, 125 g/ha
  No. panicles/plant Mean: 0
  No. tillers/plant Mean: 0
  Plant height Mean: 0 cm
  Yield % 0×: 0 % 0×
  Yield Mean: 0 g/5 plants
[3]; pre-emergence, 250 g/ha
  No. panicles/plant Mean: 0
  No. tillers/plant Mean: 0
  Plant height Mean: 0 cm
  Yield % 0×: 0 % 0×
  Yield Mean: 0 g/5 plants
[3]; post-emergence, 250 g ai/ha
  fate of control plants: killed all plants
[3]; pre-emergence, 125 and 250 g/ha
  fate of control (Nortai) plants: completely killed

## COCc1cnc(C2=NC(C)(C(C)C)C(=O)N2)c(C(=O)O)c1 (stereo not drawn) [RAPTOR ®, imazamox]
[4]
  injury to transgenic corn plants: no or slight injury
[5]; 20 g/ha, T2 progeny of 0407-1-10
  reduction of plant height of resistant transgenic plants: about 25%
[5]; 50 g/ha
  T1 transgenic plants dead, out of 288: 218
  T1 transgenic plants that survived, out of 288: 70
[5]; 50 g/ha, T1
  stunting of resistant plants: 33-70%
[5]; in vivo
  increase of tolerance in transgenic wheat plants: 5 ×
